Test system: 883617-216-R-J1-PDC complex spheroid viability
Assay: Anticancer human tumor 883617-216-R-J1-PDC patient-derived bladder carcinoma cell line growth inhibition [POLQ]
Conditions: for IC50: curve of first compound; for viability, T/C: stronger effect = lower value
Method in brief: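 Growth inhibition in 3D: complex spheroids (tumor PDC, HUVEC, MSC) treated with POLQ inhibitor combinations; where Cmax unknown, highest tested concentration 10 microM, except SN-38 at 1 microM.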

[1] = second compound 0.0316 µM, first compound 0.0316 µM
[2] = second compound 0.0316 µM, first compound 0.1 µM
[3] = second compound 0.0316 µM, first compound 0.316 µM
[4] = second compound 0.0316 µM, first compound 1 µM
[5] = second compound 0.0316 µM, first compound 3.16 µM
[6] = second compound 0.0316 µM, first compound 10 µM
[7] = second compound 0.1 µM, first compound 0.0316 µM
[8] = second compound 0.1 µM, first compound 0.1 µM
[9] = second compound 0.1 µM, first compound 0.316 µM
[10] = second compound 0.1 µM, first compound 1 µM
[11] = second compound 0.1 µM, first compound 3.16 µM
[12] = second compound 0.1 µM, first compound 10 µM
[13] = second compound 0.316 µM, first compound 0.0316 µM
[14] = second compound 0.316 µM, first compound 0.1 µM
[15] = second compound 0.316 µM, first compound 0.316 µM
[16] = second compound 0.316 µM, first compound 1 µM
[17] = second compound 0.316 µM, first compound 3.16 µM
[18] = second compound 0.316 µM, first compound 10 µM
[19] = second compound 1 µM, first compound 0.0316 µM
[20] = second compound 1 µM, first compound 0.1 µM
[21] = second compound 1 µM, first compound 0.316 µM
[22] = second compound 1 µM, first compound 1 µM
[23] = second compound 1 µM, first compound 3.16 µM
[24] = second compound 1 µM, first compound 10 µM
[25] = second compound 3.16 µM, first compound 0.0316 µM
[26] = second compound 3.16 µM, first compound 0.1 µM
[27] = second compound 3.16 µM, first compound 0.316 µM
[28] = second compound 3.16 µM, first compound 1 µM
[29] = second compound 3.16 µM, first compound 3.16 µM
[30] = second compound 3.16 µM, first compound 10 µM
[31] = second compound 10 µM, first compound 0.0316 µM
[32] = second compound 10 µM, first compound 0.1 µM
[33] = second compound 10 µM, first compound 0.316 µM
[34] = second compound 10 µM, first compound 1 µM
[35] = second compound 10 µM, first compound 3.16 µM
[36] = second compound 10 µM, first compound 10 µM
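Further: spheroids exposed to compounds for seven days before readout.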
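Wherever viability, T/C is given: 100% = DMSO vehicle control viability.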

With `CC(=O)O[C@H]1C(=O)[C@@]2(C)[C@H]([C@H](OC(=O)c3ccccc3)[C@]3(O)C[C@H](OC(=O)[C@H](O)[C@@H](NC(=O)c4ccccc4)c4ccccc4)C(C)=C1C3(C)C)[C@]1(OC(C)=O)CO[C@@H]1C[C@@H]2O` + COC1C(OC(N)=O)C(O)C(Oc2ccc3c(O)c(NC(=O)c4ccc(O)c(CC=C(C)C)c4)c(=O)oc3c2C)OC1(C)C the IC50 (second compound 0.0316 µM) was < 9.49 nM, the IC50 (second compound 0.1 µM) was < 9.49 nM and the IC50 (second compound 0.316 µM) was < 9.49 nM. The IC50 (second compound 1 µM) was < 9.49 nM, the IC50 (second compound 3.16 µM) was < 9.49 nM and the IC50 (second compound 10 µM) was < 9.49 nM. The viability, T/C (second compound 0.0316 µM, first compound 0.00949 µM) was 39.5%, the viability, T/C (second compound 0.0316 µM, first compound 0.03 µM) was 27.8% and the viability, T/C (second compound 0.0316 µM, first compound 0.0949 µM) was 26.4%. It also gave a viability, T/C (second compound 0.0316 µM, first compound 0.3 µM) of 20.8%, a viability, T/C (second compound 0.0316 µM, first compound 0.949 µM) of 18.2% and a viability, T/C (second compound 0.0316 µM, first compound 3 µM) of 19.8%. The viability, T/C (second compound 0.1 µM, first compound 0.00949 µM) was 40.2%, the viability, T/C (second compound 0.1 µM, first compound 0.03 µM) was 34.2% and the viability, T/C (second compound 0.1 µM, first compound 0.0949 µM) was 23.4%. The viability, T/C (second compound 0.1 µM, first compound 0.3 µM) was 23.7%, the viability, T/C (second compound 0.1 µM, first compound 0.949 µM) was 19.6% and the viability, T/C (second compound 0.1 µM, first compound 3 µM) was 20.7%. It also gave a viability, T/C (second compound 0.316 µM, first compound 0.00949 µM) of 50.6%, a viability, T/C (second compound 0.316 µM, first compound 0.03 µM) of 27.9% and a viability, T/C (second compound 0.316 µM, first compound 0.0949 µM) of 25.4%. It also gave a viability, T/C (second compound 0.316 µM, first compound 0.3 µM) of 17.5%, a viability, T/C (second compound 0.316 µM, first compound 0.949 µM) of 16.1% and a viability, T/C (second compound 0.316 µM, first compound 3 µM) of 20.6%. It also gave a viability, T/C (second compound 1 µM, first compound 0.00949 µM) of 42.2%, a viability, T/C (second compound 1 µM, first compound 0.03 µM) of 28.2% and a viability, T/C (second compound 1 µM, first compound 0.0949 µM) of 19%. It also gave a viability, T/C (second compound 1 µM, first compound 0.3 µM) of 26%, a viability, T/C (second compound 1 µM, first compound 0.949 µM) of 20.5% and a viability, T/C (second compound 1 µM, first compound 3 µM) of 15.9%. The viability, T/C (second compound 3.16 µM, first compound 0.00949 µM) was 42.7%, the viability, T/C (second compound 3.16 µM, first compound 0.03 µM) was 31.1% and the viability, T/C (second compound 3.16 µM, first compound 0.0949 µM) was 21.9%. For the same molecule, the viability, T/C (second compound 3.16 µM, first compound 0.3 µM) was 22.7%, the viability, T/C (second compound 3.16 µM, first compound 0.949 µM) was 23.7% and the viability, T/C (second compound 3.16 µM, first compound 3 µM) was 17.1%. For the same molecule, the viability, T/C (second compound 10 µM, first compound 0.00949 µM) was 42.2%, the viability, T/C (second compound 10 µM, first compound 0.03 µM) was 27.1% and the viability, T/C (second compound 10 µM, first compound 0.0949 µM) was 15.1%. The viability, T/C (second compound 10 µM, first compound 0.3 µM) was 16%, the viability, T/C (second compound 10 µM, first compound 0.949 µM) was 21% and the viability, T/C (second compound 10 µM, first compound 3 µM) was 21.6%.

`CC1COCCN1c1cc(C2(O)CC3CCC(C2)O3)c2cnn(-c3ccn[nH]3)c2n1` (stereo unspecified) + Nc1ccc(C#CCN(C(=O)Cc2ncc(C(F)(F)F)cc2C(F)(F)F)c2ccc(F)cc2)nn1 showed an IC50 (second compound 0.0316 µM) of 214 nM, an IC50 (second compound 0.1 µM) of 168 nM and an IC50 (second compound 0.316 µM) of 414 nM. The IC50 (second compound 1 µM) was 175 nM, the IC50 (second compound 3.16 µM) was 218 nM and the IC50 (second compound 10 µM) was 269 nM. For the same molecule, the viability, T/C [1] was 70.8%, the viability, T/C [2] was 50.9% and the viability, T/C [3] was 48%. For the same molecule, the viability, T/C [4] was 38.4%, the viability, T/C [5] was 35% and the viability, T/C [6] was 22.9%. The viability, T/C [7] was 75.2%, the viability, T/C [8] was 50.6% and the viability, T/C [9] was 40.9%. The viability, T/C [10] was 44.2%, the viability, T/C [11] was 34.9% and the viability, T/C [12] was 23.8%. The viability, T/C [13] was 68.8%, the viability, T/C [14] was 63.2% and the viability, T/C [15] was 47.8%. For the same molecule, the viability, T/C [16] was 42.9%, the viability, T/C [17] was 37.5% and the viability, T/C [18] was 21.9%. The viability, T/C [19] was 60.9%, the viability, T/C [20] was 51.9% and the viability, T/C [21] was 45.1%. For the same molecule, the viability, T/C [22] was 39.9%, the viability, T/C [23] was 32.3% and the viability, T/C [24] was 20.9%. It also gave a viability, T/C [25] of 67%, a viability, T/C [26] of 60.2% and a viability, T/C [27] of 45.2%. The viability, T/C [28] was 33.8%, the viability, T/C [29] was 38.7% and the viability, T/C [30] was 26.9%. For the same molecule, the viability, T/C [31] was 73.1%, the viability, T/C [32] was 53.1% and the viability, T/C [33] was 53.1%. For the same molecule, the viability, T/C [34] was 41.5%, the viability, T/C [35] was 39.2% and the viability, T/C [36] was 35.3%.

With `C#Cc1c(F)ccc2cc(O)cc(-c3ncc4c(N5CC6CCC(C5)N6)nc(OCC56CCCN5CC(F)C6)nc4c3F)c12` (stereo unspecified) + Nc1ccc(C#CCN(C(=O)Cc2ncc(C(F)(F)F)cc2C(F)(F)F)c2ccc(F)cc2)nn1 the IC50 (second compound 0.0316 µM) was > 10000 nM, the IC50 (second compound 0.1 µM) was > 10000 nM and the IC50 (second compound 0.316 µM) was > 10000 nM. The IC50 (second compound 1 µM) was > 10000 nM, the IC50 (second compound 3.16 µM) was > 10000 nM and the IC50 (second compound 10 µM) was > 10000 nM. The viability, T/C [1] was 82%, the viability, T/C [2] was 92.8% and the viability, T/C [3] was 97.7%. For the same molecule, the viability, T/C [4] was 90.3%, the viability, T/C [5] was 71.7% and the viability, T/C [6] was 75.1%. For the same molecule, the viability, T/C [7] was 100%, the viability, T/C [8] was 98.5% and the viability, T/C [9] was 90.6%. The viability, T/C [10] was 93.7%, the viability, T/C [11] was 93% and the viability, T/C [12] was 81%. For the same molecule, the viability, T/C [13] was 86.8%, the viability, T/C [14] was 84.2% and the viability, T/C [15] was 87.8%. The viability, T/C [16] was 78.7%, the viability, T/C [17] was 82.1% and the viability, T/C [18] was 84.8%. For the same molecule, the viability, T/C [19] was 108%, the viability, T/C [20] was 87.7% and the viability, T/C [21] was 84.7%. It also gave a viability, T/C [22] of 77.9%, a viability, T/C [23] of 82.2% and a viability, T/C [24] of 80.1%. The viability, T/C [25] was 91.1%, the viability, T/C [26] was 89.7% and the viability, T/C [27] was 89.1%. For the same molecule, the viability, T/C [28] was 101%, the viability, T/C [29] was 102% and the viability, T/C [30] was 88.1%. For the same molecule, the viability, T/C [31] was 102%, the viability, T/C [32] was 109% and the viability, T/C [33] was 113%. It also gave a viability, T/C [34] of 108%, a viability, T/C [35] of 99.3% and a viability, T/C [36] of 102%.
